Data as given in patent US20220220106A1, “QUINOLINE COMPOUNDS AND PHARMACEUTICAL COMPOSITIONS AND USES THEREOF” (Academy of Military Medical Sciences, priority 2019, published 2022).

Columns and labels:
[1] = biological target: T1, mTORC1 (Homo sapiens, UniProt P42345); assay: Western blot, phosphorylation of Thr389 of p70S6K1 in RD cells (mTORC1 inhibition); format: cell-based; conditions: 20 μM, 2 hours, Western blot (FIG. 1)
T1 construct: endogenous in cells; host or cells: RD cells
Method: In order to test the inhibitory activity of the synthesized compounds on the two mTOR complexes, the inhibitory activity experiments of mTORC1 and mTORC2 were carried out. Since mTORC1 and mTORC2 exerted their function by activating the phosphorylation of downstream substrates, the inhibitory activity of the compounds on mTORC1 and mTORC2 could be determined by detecting the phosphorylation levels of the Thr389 site of mTORC1 downstream substrate p70S6K1 and the Ser473 site of mTORC2 downstream substrate Akt.
Pretreatment of Compound:
(1) RD cells were cultured in DMEM medium containing 10% FBS and 1×PS (penicillin and streptomycin were at concentrations 100 IU and 100 μg/mL, respectively) at 37° C. and 5% CO2.
(2) The RD cells (5×10^5 cells/2 mL medium) were inoculated into a 6-well plate and incubated at 37° C. and 5% CO2 for 24 hours.
(3) The cells were washed once with PBS, and the cells were cultured in serum-free medium without nutrients overnight.
(4) Formulation of compounds: […]
Preparation of insulin medium: Insulin was diluted in DMEM medium containing 10% FBS and 1×PS so that the final concentration of insulin was 167 nM.
Pretreatment of compound to be tested: The compound was dissolved in DMSO so that the concentration of the test compound was 20 mM, and the compound was diluted in 167 nM insulin medium to reach a concentration of 20 μM.
Preparation of rapamycin solution: Rapamycin was dissolved in DMSO to a concentration of 10 mM, and the rapamycin was diluted in 167 nM insulin medium to reach a concentration of 20 μM.
(5) The serum-free medium in each well was removed.
(6) 2 mL of complete medium containing DMSO was added to each well as a control carrier. The final concentration of DMSO was 0.2%.
(7) 2 mL of 20 μM rapamycin solution and 20 μM the compound to be tested were added to the designated wells, respectively. The final concentration of DMSO was 0.2%.
(8) The cells were incubated for 2 hours at 37° C. and 5% CO2.
Protein extraction and concentration determination:
(1) The cells were washed once with refrigerated PBS, and then the PBS was discarded.
(2) 150 μL of cell extraction buffer (RIPA, […], catalog number: C1053) was transferred into each well to lyse the cells, and then the resulting cell solution were incubated on ice for 30 minutes.
(3) Centrifugation was performed at 14000 rpm (13000× g) for 30 minutes at 4° C.
(4) The supernatant was transferred into a new eppendorf tube, and the cell lysate was stored at −80° C. before testing.
(5) The protein concentration was determined by BCA method.
Preparation of Buffer Solutions:
(1) 100× Protease inhibitor (Beyotime, catalog number: P1005): 1 mL of redistilled water was added to the protease inhibitor and stirred gently until the solid was completely dissolved.
(2) Lysis Buffer: […] of 100× protease inhibitor and 2× phosphatase inhibitor Cocktails PhosSTOP (Beyotime, catalog number: P1082) were added to 100 mL of the cell extract, and stirred gently until it was completely dissolved.
(3) Electrophoresis Running Buffer:
10×MOPS buffer: 52.33 g of MOPS, 30.29 g of Tris base, 10 mL of 0.5 mol/L EDTA (pH 8.5) and 5 g of SDS was dissolved in 400 mL of redistilled water, stirred to dissolve, and the pH was adjusted to 7.5, then redistilled water was added again to reach a volume of 500 mL; 1×MOPS: 100 mL of 10×MOPS was diluted with redistilled water to 1000 mL.
(4) 1× Transfer Buffer: […] of 10× transfer buffer (144 g of glucine, 30.3 g of trisbase, and distilled water were mixed to reach a volume of 1 L) and 400 mL of methanol were dissolved in 1500 mL of redistilled water, and then the redistilled water was added to reach a volume of 2000 mL. […]

[2] = test system: RD cells; assay: Detection of cytotoxicity in RD cells (CellTiter-Glo); format: cell-based; conditions: for TD50: 4 days, CellTiter-Glo, median toxic dose
In short: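 RD cells (1*10^5/mL) cultured 4 days at 37 °C with 10 compound concentrations from 3-fold dilution of a 400 μM pretreatment solution, final being 0.5 times that. Viability by CellTiter-Glo luminescence versus cell control; TD50 from S-curve fit; SI=TD50/IC50.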

CC(=O)/C=C/c1cnc2ccc(-c3ccc(C)nc3)cc2c1Nc1cccc(C(F)(F)F)c1 [HTL-2-38, (E)-6-[3-(6-methyl)pyridyl]-4-[3-(trifluoromethyl)phenyl]aminoquinoline-3-butenone]
p70 phosphorylation expression level [1]: significantly down-regulate
TD50 [2]: 8.71 ± 1.53 µM

NC(=O)c1ccc(-c2ccc3ncc4oc(=O)n(-c5cccc(C(F)(F)F)c5)c4c3c2)cc1 [HTL-5-21, 8-(4-carbamoyl)phenyl-1-[3-(trifluoromethyl)phenyl]oxazolo[5,4-c]quinolin-2(1H)-one]
p70 phosphorylation expression level [1]: significantly down-regulate
TD50 [2]: 6.95 ± 1.23 µM

Nc1cccc(Nc2ccc3ncc4ccc(=O)n(-c5cccc(C(F)(F)F)c5)c4c3c2)c1 [HTL-6-11, 9-(3-aminophenyl)imino-2-oxo-1-[3-(trifluoromethyl)phenyl]-1,2-dihydrobenzo[h][1,6]naphthyridine]
p70 phosphorylation expression level [1]: significantly down-regulate
TD50 [2]: 7.58 ± 1.24 µM

Nc1cccc(Nc2ccc3ncc4ccc(=O)n(-c5cccc(C(F)(F)F)c5)c4c3c2)n1 [HTL-6-12, 9-[2-(6-aminopyridyl)]imino-2-oxo-1-[3-(trifluoromethyl)phenyl]-1,2-dihydrobenzo[h][1,6]naphthyridine]
p70 phosphorylation expression level [1]: significantly down-regulate
TD50 [2]: 5.19 ± 0.56 µM

NC(=O)/C=C/c1ccc2ncc3oc(=O)n(-c4cccc(C(F)(F)F)c4)c3c2c1 [HTL-6-30, (E)-8-(2-carbamoyl-vinyl)-1-[3-(trifluoromethyl)phenyl]oxazolo[5,4-c]quinolin-2(1H)-one]
p70 phosphorylation expression level [1]: significantly down-regulate
TD50 [2]: 7 ± 0.09 µM

CCC(=O)Nc1ccc(-c2ccc3ncc4ccc(=O)n(-c5cccc(C(F)(F)F)c5)c4c3c2)cn1 [HTL-6-45, 9-[3-(6-propionylamino)pyridyl]-2-oxo-1-[3-(trifluoromethyl)phenyl]-1,2-dihydrobenzo[h][1,6]naphthyridine]
p70 phosphorylation expression level [1]: significantly down-regulate
TD50 [2]: 0.04 ± 0.02 µM

O=c1ccc2cnc3ccc(-c4ccc5ncccc5c4)cc3c2n1-c1cccc(C(F)(F)F)c1 [HTL-6-47, 9-(6-quinolyl)-2-oxo-1-[3-(trifluoromethyl)phenyl]-1,2-dihydrobenzo[h][1,6]naphthyridine]
p70 phosphorylation expression level [1]: significantly down-regulate
TD50 [2]: 0.03 ± 0.02 µM

O=c1ccc2cnc3ccc(-c4cccnc4F)cc3c2n1-c1cccc(C(F)(F)F)c1 [HTL-6-48, 9-[3-(2-fluoro)pyridyl]-2-oxo-1-[3-(trifluoromethyl)phenyl]-1,2-dihydrobenzo [h][1,6]naphthyridine]
p70 phosphorylation expression level [1]: significantly down-regulate
toxicity, in words [2]: relatively low toxicity
TD50 [2]: 1.23 ± 1.20 µM

Cc1ncccc1-c1ccc2ncc3ccc(=O)n(-c4cccc(C(F)(F)F)c4)c3c2c1 [HTL-6-49, 9-[3-(2-methyl)pyridyl]-2-oxo-1-[3-(trifluoromethyl)phenyl]-1,2-dihydrobenzo[h][1,6]naphthyridine]
p70 phosphorylation expression level [1]: significantly down-regulate
TD50 [2]: 0.07 ± 0.00 µM

O=c1ccc2cnc3ccc(-c4cc[nH]n4)cc3c2n1-c1cccc(C(F)(F)F)c1 [HTL-6-50, 9-[(1H)-3-pyrazolyl]-2-oxo-1-[3-(trifluoromethyl)phenyl]-1,2-dihydrobenzo[h][1,6]naphthyridine]
p70 phosphorylation expression level [1]: significantly down-regulate
TD50 [2]: 0.17 ± 0.05 µM

O=c1ccc2cnc3ccc(-c4ccc(F)nc4)cc3c2n1-c1cccc(C(F)(F)F)c1 [HTL-7-01, 9-[3-(6-fluoro)pyridyl]-2-oxo-1-[3-(trifluoromethyl)phenyl]-1,2-dihydrobenzo[h][1,6]naphthyridine]
p70 phosphorylation expression level [1]: significantly down-regulate
TD50 [2]: 0.23 ± 0.33 µM
